Data reported in ChEMBL document CHEMBL3085678, “3-Azatetracyclo[5.2.1.1(5,8).0(1,5)]undecane derivatives: from wild-type inhibitors of the M2 ion channel of influenza A virus to derivatives with potent activity against the V27A mutant” (J Med Chem, 2013).
The source made the active and inactive calls. No cut-off for these calls is given here.

What was measured:
Vaccinia virus = assay: Antiviral activity against Vaccinia virus; assay type: functional, organism-based; conditions: Orthopoxvirus vaccinia
[1] = test system: Mammalian orthoreovirus 1; assay: Antiviral activity against Reovirus-1; assay type: functional, organism-based
[2] = test system: Respiratory syncytial virus; assay: Antiviral activity against Respiratory syncytial virus; assay type: functional, organism-based
Human alphaherpesvirus 1 = assay: Antiviral activity against Herpes simplex virus type 1; assay type: functional, organism-based
[3] = test system: Vesicular stomatitis virus; assay: Antiviral activity against Vesicular stomatitis virus; assay type: functional, organism-based
Human respirovirus 3 = assay: Antiviral activity against Parainfluenza-3 virus; assay type: functional, organism-based
Sindbis virus = assay: Antiviral activity against Sindbis virus; assay type: functional, organism-based
[4] = test system: Influenza A virus (A/udorn/1972(H3N2)); assay type: cell membranes; conditions: 100 uM
Feline coronavirus = assay: Antiviral activity against Feline coronavirus; assay type: functional, organism-based
Punta Toro virus = assay: Antiviral activity against Punta Toro virus; assay type: functional, organism-based
Human alphaherpesvirus 2 = assay: Antiviral activity against Herpes simplex virus type 2; assay type: functional, organism-based
Coxsackievirus B4 = assay: Antiviral activity against Coxsackievirus B4; assay type: functional, organism-based
MDCK = assay: Cytotoxicity against MDCK cells after 72 hrs by MTS assay; assay type: cell-based, Canis lupus familiaris; conditions: dog
[5] = Cytotoxicity against MDCK cells assessed as minimum cytotoxic concentration after 72 hrs by MTS assay; assay type: cell-based, Canis lupus familiaris; conditions: dog
[6] = Cytotoxicity against MDCK cells assessed as minimum cytotoxic concentration after 24 hrs by MTS assay; assay type: cell-based, Canis lupus familiaris; conditions: dog
[7] = Inhibition of Influenza A virus M2 ion channel by two-electrode voltage clamp assay

Row | SMILES | Activity (Vaccinia virus) | Activity [1] | Activity [2] | Activity (Human alphaherpesvirus 1) | Activity [3] | Activity (Human respirovirus 3) | Activity (Sindbis virus) | inhibition [4] [%] | Activity (Feline coronavirus) | Activity (Punta Toro virus) | Activity (Human alphaherpesvirus 2) | Activity (Coxsackievirus B4) | CC50 (MDCK) [µM] | MCC at 72 h [5] [µM] | MCC at 24 h [6] [µM] | IC50 [7] [µM]
1 | NCC12C3CCC4C3C3C(CCC31)C42 | inactive | inactive | inactive | inactive | inactive | inactive | inactive | 12.8 | inactive | inactive | inactive | inactive | – | – | – | –
2 | NC12C3CCC4C3C3C(CCC31)C42 | inactive | inactive | inactive | inactive | inactive | inactive | inactive | 4.8 | inactive | inactive | inactive | inactive | – | – | – | –
3 | C1CCC23CC45CNCC4(CC2(C1)C5)C3 | inactive | inactive | inactive | inactive | inactive | inactive | inactive | 85.3 | inactive | inactive | inactive | inactive | 6.8 | 4 | > 50 | –
4 | CC12CC34CN(C(=N)N)CC3(C1)CC2(C)C4 | inactive | inactive | inactive | inactive | inactive | inactive | inactive | 92.4 | inactive | inactive | inactive | inactive | 1.4 | 4 | > 50 | –
5 | C1=CC2C3C4C5C=CC4C24CNCC54C13 | inactive | inactive | inactive | inactive | inactive | inactive | inactive | – | inactive | inactive | inactive | inactive | – | – | – | –
6 | C1C2C1C1C3C4C5C6CC6C4C14CNCC54C23 (configuration not stated) | inactive | inactive | inactive | inactive | inactive | inactive | inactive | 86.5 | inactive | inactive | inactive | inactive | – | – | – | –
7 | N=C(N)N1CC23CC4CC2(CC4C3)C1 | inactive | inactive | inactive | inactive | inactive | inactive | inactive | 95.7 | inactive | inactive | inactive | inactive | 10 | 8.5 | > 50 | –
8 | CC(N)C12CC3CC(CC(C3)C1)C2 (configuration not stated) [RIMANTADINE] | – | – | – | – | – | – | – | – | – | – | – | – | 203 | 500 | ≥ 500 | –
9 | CCC12CC34CN(C(=N)N)CC3(C1)CC2(CC)C4 | inactive | inactive | inactive | inactive | inactive | inactive | inactive | 42.8 | inactive | inactive | inactive | inactive | 6.2 | 4 | – | –
10 | C1NCC23CC4CC12CC4C3 | inactive | inactive | inactive | inactive | inactive | inactive | inactive | 93.9 | inactive | inactive | inactive | inactive | ≥ 59 | 100 | – | –
11 | c1csc(-c2cc(CNC34CC5CC(CC(C5)C3)C4)no2)c1 | – | – | – | – | – | – | – | – | – | – | – | – | – | – | – | > 100
12 | N=C(N)N1CC23CC45CCCCC4(C2)CC3(C1)C5 | inactive | inactive | inactive | inactive | inactive | inactive | inactive | 93.1 | inactive | inactive | inactive | inactive | 3.1 | 4 | ≥ 10 | –
13 | NC(=O)c1ncn([C@@H]2O[C@H](CO)[C@@H](O)[C@H]2O)n1 [RIBAVIRIN] | – | – | – | – | – | – | – | – | – | – | – | – | – | – | > 100 | –
14 | CC12CC3CC1(C)CC3(CN)C2 | inactive | inactive | inactive | inactive | inactive | inactive | inactive | 97.3 | inactive | inactive | inactive | inactive | – | – | – | –
15 | CCC12CC34CNCC3(C1)CC2(CC)C4 | inactive | inactive | inactive | inactive | inactive | inactive | inactive | 65 | inactive | inactive | inactive | inactive | 49 | 20 | – | –
16 | CN1CC23CC4CC2(CC4C3)C1 | inactive | inactive | inactive | inactive | inactive | inactive | inactive | 88.3 | inactive | inactive | inactive | inactive | > 100 | ≥ 100 | – | –
17 | NC1CC[Si]2(CCCCC2)CC1 | – | – | – | – | – | – | – | – | – | – | – | – | – | – | – | 14
18 | CC12CC3CC1(C)CC3(N)C2 | inactive | inactive | inactive | inactive | inactive | inactive | inactive | 93.6 | inactive | inactive | inactive | inactive | – | – | – | –
19 | NC12CC3CC(CC(C3)C1)C2 [AMANTADINE] | – | – | – | – | – | – | – | 91 | – | – | – | – | > 500 | > 500 | ≥ 500 | –
20 | CC12CC34CNCC3(C1)CC2(C)C4 | inactive | inactive | inactive | inactive | inactive | inactive | inactive | 93.8 | inactive | inactive | inactive | inactive | 59 | 100 | – | –
21 | Oc1ccc(CNC23CC4CC(CC(C4)C2)C3)c(O)c1 | – | – | – | – | – | – | – | – | – | – | – | – | – | – | – | 59
22 | NC1CCC2(CC1)C1CC3CC(C1)CC2C3 (configuration not stated) | – | – | – | – | – | – | – | – | – | – | – | – | – | – | – | 19
23 | CN1CC23CC4(C)CC2(C1)CC4(C)C3 | inactive | inactive | inactive | inactive | inactive | inactive | inactive | 87.9 | inactive | inactive | inactive | inactive | 49 | ≥ 20 | – | –
